From PubChem BioAssay AID248 (DTP/NCI, 2004)
Values joined by “and” are separate entries in the source; they are usually repeats but may differ in a detail not shown here. Equal values may be shown once. Toxic doses and inconclusive results are not listed. Rule as the data show it: active = T/C of 150% or more; inactive = T/C below 125%.

System: L1210 leukemia ip in BDF1 mice, survival T/C
Test: NCI In Vivo Anticancer Drug Screen. Data for tumor model L1210 Leukemia (intraperitoneal) in B6D2F1 (BDF1) mice
Settings: endpoint: mean survival time, higher = longer survival
How it was run: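 Read-out is survival time, reported as the treated-group measurement over the vehicle-control measurement.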

[1] = dose: 100.0 mg/kg/injection, schedule: Q01DX009 (ip), vehicle: saline
[2] = dose: 200.0 mg/kg/injection, schedule: Q01DX009 (ip), vehicle: saline
[3] = dose: 100.0 mg/kg/injection, schedule: Q04DX002 (ip), vehicle: Klucel (hydroxypropylcellulose) (HPC)
[4] = dose: 200.0 mg/kg/injection, schedule: Q04DX002 (ip), vehicle: Klucel (hydroxypropylcellulose) (HPC)
[5] = dose: 400.0 mg/kg/injection, schedule: Q04DX002 (ip), vehicle: Klucel (hydroxypropylcellulose) (HPC)
[6] = dose: 50.0 mg/kg/injection, schedule: Q01DX009 (ip), vehicle: saline with Tween-80
[7] = dose: 100.0 mg/kg/injection, schedule: Q01DX009 (ip), vehicle: Klucel (hydroxypropylcellulose) (HPC)
[8] = dose: 100.0 mg/kg/injection, schedule: Q01DX009 (ip), vehicle: saline with Tween-80
[9] = dose: 200.0 mg/kg/injection, schedule: Q01DX009 (ip), vehicle: Klucel (hydroxypropylcellulose) (HPC)
[10] = dose: 400.0 mg/kg/injection, schedule: Q01DX009 (ip), vehicle: Klucel (hydroxypropylcellulose) (HPC)
[11] = dose: 75.0 mg/kg/injection, schedule: Q01DX001 (ip), vehicle: saline
[12] = dose: 150.0 mg/kg/injection, schedule: Q01DX001 (ip), vehicle: saline
[13] = dose: 25.0 mg/kg/injection, schedule: Q01DX009 (ip), vehicle: saline with Tween-80
[14] = dose: 100.0 mg/kg/injection, schedule: Q04DX002 (ip), vehicle: saline

Measured: T/C

CC1CC(C)(C)OC(C(Cl)(Cl)Cl)O1 (stereo not given)
inactive: dose: 50.0 mg/kg/injection, schedule: Q01DX009 (ip), vehicle: saline 98 % of control | [1] 93 % of control | dose: 100.0 mg/kg/injection, schedule: Q04DX003 (ip), vehicle: acetone 112 % of control | [2] 93 % of control | dose: 200.0 mg/kg/injection, schedule: Q04DX003 (ip), vehicle: acetone 106 % of control | dose: 400.0 mg/kg/injection, schedule: Q04DX003 (ip), vehicle: acetone 103 % of control

CCC(=O)O[C@H]1CC[C@H]2[C@@H]3CC[C@H]4CC(=O)[C@H](C)C[C@]4(C)[C@H]3CC[C@]12C
inactive: dose: 44.13 mg/kg/injection, schedule: Q01DX Z (sc), vehicle: steriod suspending solution 96 % of control | dose: 88.25 mg/kg/injection, schedule: Q01DX Z (sc), vehicle: steriod suspending solution 104 % of control | dose: 176.5 mg/kg/injection, schedule: Q01DX Z (sc), vehicle: steriod suspending solution 103 % of control | dose: 353.0 mg/kg/injection, schedule: Q01DX Z (sc), vehicle: steriod suspending solution 100 % of control

O=CNC1CCCCC1
inactive: dose: 20.0 mg/kg/injection, schedule: Q01DX009 (ip), vehicle: saline with Tween-80 93 % of control | dose: 40.0 mg/kg/injection, schedule: Q01DX001 (ip), vehicle: saline with Tween-80 100 % of control | dose: 40.0 mg/kg/injection, schedule: Q01DX009 (ip), vehicle: saline with Tween-80 93 % of control | dose: 80.0 mg/kg/injection, schedule: Q01DX001 (ip), vehicle: saline with Tween-80 100 % of control | dose: 80.0 mg/kg/injection, schedule: Q01DX009 (ip), vehicle: saline with Tween-80 91 % of control

O=C(O)c1ccsc1C(=O)c1ccccc1
inactive: dose: 100.0 mg/kg/injection, schedule: Q01DX001 (ip), vehicle: saline with Tween-80 105 % of control | dose: 200.0 mg/kg/injection, schedule: Q01DX001 (ip), vehicle: saline with Tween-80 102 % of control | dose: 400.0 mg/kg/injection, schedule: Q01DX001 (ip), vehicle: saline with Tween-80 97 % of control

Clc1ccc(OCc2sc3ccc(Cl)cc3c2CN2CCOCC2)cc1
inactive: dose: 100.0 mg/kg/injection, schedule: Q04DX003 (ip), vehicle: saline with Tween-80 91 % of control | dose: 200.0 mg/kg/injection, schedule: Q04DX003 (ip), vehicle: saline with Tween-80 90 % of control | dose: 400.0 mg/kg/injection, schedule: Q04DX003 (ip), vehicle: saline with Tween-80 91 % of control

Cc1ccc(S(=O)(=O)N=N/C=C2/C=CC=CN2O)cc1
inactive: dose: 40.0 mg/kg/injection, schedule: Q01DX009 (ip), vehicle: saline 93 % of control | dose: 60.0 mg/kg/injection, schedule: Q01DX009 (ip), vehicle: saline 96 % of control | dose: 90.0 mg/kg/injection, schedule: Q01DX009 (ip), vehicle: saline 94 % of control | dose: 135.0 mg/kg/injection, schedule: Q01DX009 (ip), vehicle: saline 104 % of control | dose: 175.0 mg/kg/injection, schedule: Q01DX009 (ip), vehicle: saline with Tween-80 111 % of control

CNc1ccccc1C(=O)N/N=C/c1ccccc1Cl
inactive: [3] 108 % of control | [4] 93 % of control | [5] 86 % of control

O=C1CC(=P(c2ccccc2)(c2ccccc2)c2ccccc2)C(=O)N1c1ccccc1
inactive: [6] 100 % of control | [7] 94 % of control | [8] 100 % of control | [3] 106 % of control | [9] 102 % of control | dose: 200.0 mg/kg/injection, schedule: Q01DX009 (ip), vehicle: saline with Tween-80 100 % of control | [4] 109 % of control | [10] 94 % of control | [5] 98 % of control

Cc1cc(C)c(C(=O)O)cc1C
inactive: [11] 102 % of control | [12] 94 % of control | dose: 300.0 mg/kg/injection, schedule: Q01DX001 (ip), vehicle: saline 102 % of control

N#CCC(=O)N/N=C\c1ccc2c(c1)OCO2
inactive: dose: 100.0 mg/kg/injection, schedule: Q01DX001 (ip), vehicle: carboxymethylcellulose (CMC) 97 % of control | dose: 200.0 mg/kg/injection, schedule: Q01DX001 (ip), vehicle: carboxymethylcellulose (CMC) 94 % of control | dose: 400.0 mg/kg/injection, schedule: Q01DX001 (ip), vehicle: carboxymethylcellulose (CMC) 97 % of control

CN(C)c1ncnc2c1ncn2C1CCCO1 (stereo not given)
inactive: dose: 25.0 mg/kg/injection, schedule: Q01DX Z (ip), vehicle: methylcellulose (MC) 97 % of control | dose: 50.0 mg/kg/injection, schedule: Q01DX Z (ip), vehicle: methylcellulose (MC) 92 % of control

CC(C)(O)C(=O)NC/C=C/c1ccccc1
inactive: [13] 93 % of control | [6] 93 % of control | [8] 93 % of control

Nc1ccn(Cc2cccc3ccccc23)c(=O)n1
inactive: dose: 100.0 mg/kg/injection, schedule: Q04DX003 (ip), vehicle: gum acacia 93 % of control | dose: 200.0 mg/kg/injection, schedule: Q04DX003 (ip), vehicle: gum acacia 90 % of control | dose: 400.0 mg/kg/injection, schedule: Q04DX003 (ip), vehicle: gum acacia 90 % of control

C[N+]1(CC(=O)c2ccc(CCc3ccc(C(=O)C[N+]4(C)CCCCC4)cc3)cc2)CCCCC1
inactive: dose: 0.78 mg/kg/injection, schedule: Q01DX009 (ip), vehicle: saline 117 % of control | dose: 0.78 mg/kg/injection, schedule: Q04DX002 (ip), vehicle: saline 101 % of control | dose: 1.56 mg/kg/injection, schedule: Q01DX009 (ip), vehicle: saline 106 % of control | dose: 1.56 mg/kg/injection, schedule: Q04DX002 (ip), vehicle: saline 95 % of control | dose: 3.12 mg/kg/injection, schedule: Q01DX009 (ip), vehicle: saline 92 % of control | dose: 3.12 mg/kg/injection, schedule: Q04DX002 (ip), vehicle: saline 98 % of control and 105 % of control

Oc1c(Cl)c(Cl)cc(Cl)c1Cc1c(Cl)cc(Cl)c(Cl)c1[O][Pb]([c]1ccccc1)([c]1ccccc1)[c]1ccccc1
inactive: dose: 6.25 mg/kg/injection, schedule: Q01DX009 (ip), vehicle: saline 101 % of control | dose: 12.5 mg/kg/injection, schedule: Q01DX009 (ip), vehicle: saline 95 % of control | dose: 25.0 mg/kg/injection, schedule: Q04DX002 (ip), vehicle: saline 86 % of control | [14] 97 % of control

CN1CCN(C(=O)Nc2cccc(F)c2)CC1
inactive: [13] 97 % of control | [6] 101 % of control | [8] 94 % of control and 96 % of control

COc1ccc(CC2=NCCc3cc(OC)c(OC)cc32)cc1OC
inactive: [11] 97 % of control | [1] 96 % of control and 90 % of control | dose: 100.0 mg/kg/injection, schedule: Q04DX003 (ip), vehicle: saline 110 % of control and 89 % of control | [12] 100 % of control

CC1CCCN(C(=O)CCCCl)C1 (stereo not given)
inactive: [14] 96 % of control | dose: 200.0 mg/kg/injection, schedule: Q04DX002 (ip), vehicle: saline 99 % of control | dose: 400.0 mg/kg/injection, schedule: Q04DX002 (ip), vehicle: saline 99 % of control

COC(=O)c1ccc(OCc2ccccc2)cc1
inactive: dose: 100.0 mg/kg/injection, schedule: Q04DX003 (ip), vehicle: Klucel (hydroxypropylcellulose) (HPC) 103 % of control | dose: 200.0 mg/kg/injection, schedule: Q04DX003 (ip), vehicle: Klucel (hydroxypropylcellulose) (HPC) 100 % of control | dose: 400.0 mg/kg/injection, schedule: Q04DX003 (ip), vehicle: Klucel (hydroxypropylcellulose) (HPC) 92 % of control

COc1ccc(Cl)cc1N=Cc1cccc([N+](=O)[O-])c1
inactive: [7] 102 % of control | [9] 94 % of control | [10] 94 % of control

Cc1nn(C2CC(O)C(O)C(CO)O2)c(=O)[nH]c1=O (stereo not given)
inactive: dose: 50.0 mg/kg/injection, schedule: Q01DX001 (ip), vehicle: saline 93 % of control | dose: 100.0 mg/kg/injection, schedule: Q01DX001 (ip), vehicle: saline 96 % of control | [1] 92 % of control | dose: 200.0 mg/kg/injection, schedule: Q01DX001 (ip), vehicle: saline 104 % of control | [2] 95 % of control | dose: 400.0 mg/kg/injection, schedule: Q01DX001 (ip), vehicle: saline 98 % of control | dose: 400.0 mg/kg/injection, schedule: Q01DX009 (ip), vehicle: saline 98 % of control
